# Active and inactive are the calls of the source. How the calls were made is not given here.
# Tested on: GENE-TOX genotoxicity assays, various organisms and cells
# Experiment: GENE-TOX mutagenicity studies
# Settings: for call: Assay Type: In vivo carcinogenicity studies
# [1] = Species/Cell Type: Salmonella typhimurium (one or more of the five standard strains: TA98, TA100, TA1535, TA1537, and TA1538), Assay Type: Histidine reverse gene mutation, Ames assay, Assay Code: SAL+*, Activation: With metabolic activation, Evaluation Type: Evaluation A (Pre-1980)
# [2] = Species/Cell Type: Drosophila melanogaster, Assay Type: Sex-linked recessive lethal gene mutation, Assay Code: SRLT, Evaluation Type: Evaluation A (Pre-1980)
# [3] = Species/Cell Type: Salmonella typhimurium (one or more of the five standard strains: TA98, TA100, TA1535, TA1537, and TA1538), Assay Type: Histidine reverse gene mutation, Ames assay, Assay Code: SALT, Evaluation Type: Evaluation A (Pre-1980)
# [4] = Species/Cell Type: Chinese hamster lung (V79) cells, Assay Type: Forward gene mutation at the HPRT or ouabain locus, Assay Code: V79+, Evaluation Type: Evaluation A (Pre-1980)
# [5] = Species/Cell Type: Salmonella typhimurium, Assay Type: Forward and reverse gene mutation, host-mediated assay, Assay Code: HMA+, Evaluation Type: Evaluation A (Pre-1980)
# [6] = Species/Cell Type: Bacillus subtilis (H17 vs M45), Assay Type: Rec-assay, spot test, DNA effects (bacterial DNA repair), Assay Code: REW+, Evaluation Type: Evaluation A (Pre-1980)
# [7] = Species/Cell Type: Salmonella typhimurium (one or more of the five standard strains: TA98, TA100, TA1535, TA1537, and TA1538), Assay Type: Histidine reverse gene mutation, Ames assay, Assay Code: SAL+, Evaluation Type: Evaluation A (Pre-1980)
# [8] = Species/Cell Type: Mammalian polychromatic erythrocytes, Assay Type: Micronucleus test, chromosome aberrations, Assay Code: MNT+, Evaluation Type: Evaluation B (Post-1980)
# [9] = Species/Cell Type: Nonhuman, Assay Type: Sister-chromatid exchange (SCE) in vitro, Assay Code: SC2+D, Dose Response: With dose response, Evaluation Type: Evaluation B (Post-1980)
# [10] = Species/Cell Type: Syrian hamster embryo (SHE) cells, Assay Type: Cell transformation, clonal assay, Assay Code: CTC+, Evaluation Type: Evaluation A (Pre-1980)
# [11] = Species/Cell Type: Vicia faba, Assay Type: Chromosome aberrations, Assay Code: VIC+, Evaluation Type: Evaluation A (Pre-1980)
structure (smiles),measurement,setting,value
COc1cc(/C=N/NC(=O)COc2ccc(Br)cc2CN2CCOCC2)ccc1O,mutagenic call,"Species/Cell Type: Saccharomyces cerevisiae, Assay Type: Reverse gene mutation, Assay Code: YERT, Evaluation Type: Evaluation A (Pre-1980)",no conclusion
Cc1ccc2cccnc2c1,mutagenic call,[1],active; positive
O=c1cc[nH]c(=S)[nH]1,mutagenic call,[2],no conclusion
Nc1ccc(-c2nc(N(CCO)CCO)c3ccccc3n2)s1,mutagenic call,[3],no conclusion
CN1CCN(N=O)CC1,mutagenic call,[4],active; positive
same,mutagenic call,"Species/Cell Type: Drosophila melanogaster, Assay Type: Sex-linked recessive lethal gene mutation, Assay Code: SRL+, Evaluation Type: Evaluation A (Pre-1980)",active; positive
same,mutagenic call,[3],no conclusion
same,mutagenic call,[5],active; positive
CC1CCOS1(=O)=O (stereo not drawn),mutagenic call,"Species/Cell Type: Schizosaccharomyces pombe, Assay Type: Reverse gene mutation, Assay Code: YEZ+, Evaluation Type: Evaluation A (Pre-1980)",active; positive
Brc1ccc(C2CO2)cc1 (stereo not drawn),mutagenic call,"Species/Cell Type: Escherichia coli WP2 UVRA, Assay Type: Tryptophan reverse gene mutation, Assay Code: WPU+D, Dose Response: With dose response, Evaluation Type: Evaluation A (Pre-1980)",active; positive
CC1=C2C(=CO[C@H](C)[C@H]2C)C(=O)C(C(=O)O)=C1O,mutagenic call,[6],active; positive
same,mutagenic call,"Species/Cell Type: Saccharomyces cerevisiae, Assay Type: Mitotic recombination or gene conversion, Assay Code: YEH-, Evaluation Type: Evaluation A (Pre-1980)",inactive; negative
Cc1ccc2cc3c(ccc4ccccc43)c3c2c1C(O)C3O (stereo not drawn),mutagenic call,"Species/Cell Type: Mouse prostate cells, Assay Type: Cell transformation, Assay Code: CTM+D, Dose Response: With dose response, Evaluation Type: Evaluation A (Pre-1980)",active; positive
CN(C)C(=O)Nc1cccc(C(F)(F)F)c1,mutagenic call,"Species/Cell Type: Saccharomyces cerevisiae, Assay Type: Mitotic recombination or gene conversion, Assay Code: YEC-, Evaluation Type: Evaluation A (Pre-1980)",inactive; negative
Cc1cc(=Nc2ccc3c(c2)c(-c2ccc(N)cc2)[n+](C)c2cc(N)ccc32)nc(N)n1C,mutagenic call,[7],active; positive
C=CCOc1ccccc1OCC(O)CNC(C)C (stereo not drawn),mutagenic call,[8],active; positive
BrCC(Br)C(Br)CBr (stereo not drawn),mutagenic call,"Species/Cell Type: Rodents, Sex: Male, Assay Type: Dominant lethal test, Assay Code: DLT-, Evaluation Type: Evaluation A (Pre-1980)",inactive; negative
c1cc2c(cc1CC1CO1)OCO2 (stereo not drawn),mutagenic call,[7],active; positive
c1ccc2c(c1)cc1c3c2ccc2cccc(c23)C2OC12 (stereo not drawn),mutagenic call,[4],active; positive
same,mutagenic call,"Species/Cell Type: Human diploid fibroblasts, Assay Type: Unscheduled DNA synthesis (UDS) in vitro, DNA effects, Assay Code: UDH+, Evaluation Type: Evaluation A (Pre-1980)",active; positive
same,mutagenic call,"Species/Cell Type: Human, Assay Type: Sister-chromatid exchange (SCE) in vitro, Assay Code: SC1+D, Dose Response: With dose response, Evaluation Type: Evaluation B (Post-1980)",active; positive
same,mutagenic call,"Species/Cell Type: Mouse prostate cells, Assay Type: Cell transformation, Assay Code: CTM+, Evaluation Type: Evaluation A (Pre-1980)",active; positive
same,call,"Species/Cell Type: Nonhuman, Assay Code: CCGT, Evaluation Type: Evaluation A (Pre-1980)",no conclusion
same,mutagenic call,[9],active; positive
same,mutagenic call,"Species/Cell Type: Saccharomyces cerevisiae, Assay Type: Mitotic recombination or gene conversion, Assay Code: YEH+, Evaluation Type: Evaluation A (Pre-1980)",active; positive
same,mutagenic call,[7],active; positive
same,mutagenic call,[10],active; positive
CC(C)(c1ccc(OCC2CO2)cc1)c1ccc(OCC2CO2)cc1 (stereo not drawn),mutagenic call,[1],active; positive
Nc1cccc2c1C(=O)c1c(NCCNCCO)ccc(NCCNCCO)c1C2=O,mutagenic call,[9],active; positive
c1ccc2c(c1)CCc1cc3ccc4c(c3cc1-2)CCCC4,mutagenic call,[1],active; positive
[O-]/[N+](=N\O)c1ccccc1,call,"Species/Cell Type: Nonhuman, Assay Code: CCG+, Evaluation Type: Evaluation A (Pre-1980)",active; positive
same,mutagenic call,[11],active; positive
O=S1(=O)OCCCO1,mutagenic call,[7],active; positive
same,mutagenic call,[5],active; positive
C/C=C1/C[C@@H](C)[C@](O)(CO)C(=O)OCC2=CC[N+]3([O-])CC[C@@H](OC1=O)[C@@H]23 (stereo partly drawn),mutagenic call,[2],no conclusion
CN(C#N)N=O,mutagenic call,"Species/Cell Type: Nonhuman, Assay Type: Chromosome aberrations in vitro, Assay Code: CY&+, Evaluation Type: Evaluation A (Pre-1980)",active; positive
same,mutagenic call,[7],active; positive
same,mutagenic call,[10],active; positive
O[C@@H]1c2ccccc2-c2cc3ccc4ccccc4c3cc2[C@@H]1O,mutagenic call,"Species/Cell Type: Chinese hamster lung (V79) cells, Assay Type: Forward gene mutation at the HPRT or ouabain locus, Assay Code: V79-, Evaluation Type: Evaluation A (Pre-1980)",inactive; negative
same,mutagenic call,"Species/Cell Type: Mouse prostate cells, Assay Type: Cell transformation, Assay Code: CTM-, Evaluation Type: Evaluation A (Pre-1980)",inactive; negative
same,mutagenic call,[10],active; positive
CCNc1nc(Cl)nc(NC(C)(C)C#N)n1,mutagenic call,"Species/Cell Type: Drosophila melanogaster, Assay Type: Aneuploidy, partial sex chromosome loss, chromosome aberrations, Assay Code: DAPT, Evaluation Type: Evaluation A (Pre-1980)",no conclusion
same,mutagenic call,"Species/Cell Type: Drosophila melanogaster, Assay Type: Aneuploidy, sex chromosome gain, chromosome aberrations, Assay Code: DAGT, Evaluation Type: Evaluation A (Pre-1980)",no conclusion
same,mutagenic call,"Species/Cell Type: Drosophila melanogaster, Assay Type: Aneuploidy, whole sex chromosome loss, chromosome aberrations, Assay Code: DAC-M, Evaluation Type: Evaluation A (Pre-1980)",inactive; negative
same,mutagenic call,[2],no conclusion
same,mutagenic call,"Species/Cell Type: Neurospora crassa, Assay Type: Aneuploidy, chromosome aberrations, Assay Code: NEN-, Evaluation Type: Evaluation A (Pre-1980)",inactive; negative
same,mutagenic call,"Species/Cell Type: Tradescantia species, Assay Type: Chromosome aberrations, Assay Code: TRC+, Evaluation Type: Evaluation A (Pre-1980)",active; positive
same,mutagenic call,[11],active; positive
same,mutagenic call,"Species/Cell Type: Zea mays (corn), Assay Type: Gene mutation, Assay Code: ZEM+, Evaluation Type: Evaluation A (Pre-1980)",active; positive
CC(=O)Nc1ccc(OCC(O)CNC(C)C)cc1 (stereo not drawn),mutagenic call,"Species/Cell Type: Mammalian polychromatic erythrocytes, Assay Type: Micronucleus test, chromosome aberrations, Assay Code: MNTT, Evaluation Type: Evaluation B (Post-1980)",no conclusion
same,mutagenic call,"Species/Cell Type: Mouse, Sex: Male, Assay Type: Sperm morphology, Assay Code: SPI-, Evaluation Type: Evaluation A (Pre-1980)",inactive; negative
O=C(O)/C=C/c1ccc([N+](=O)[O-])o1,mutagenic call,[7],active; positive
CCN(CC)C(=O)/C(Cl)=C(\C)OP(=O)(OC)OC,mutagenic call,"Species/Cell Type: Hordeum vulgare (barley), Assay Type: Chromosome aberrations, Assay Code: HOC+D, Dose Response: With dose response, Evaluation Type: Evaluation A (Pre-1980)",active; positive
same,mutagenic call,[8],active; positive
same,mutagenic call,[11],active; positive
[Cl][Hg],mutagenic call,[6],active; positive
same,mutagenic call,"Species/Cell Type: Bacillus subtilis (H17 vs M45T), Assay Type: Rec-assay, spot test, DNA effects (bacterial DNA repair), Assay Code: REXT, Evaluation Type: Evaluation A (Pre-1980)",no conclusion
same,mutagenic call,"Species/Cell Type: Nonhuman, Assay Type: Sister-chromatid exchange (SCE) in vitro, Assay Code: SC2+, Evaluation Type: Evaluation B (Post-1980)",active; positive

# Source: PubChem BioAssay AID1259408 (Genetic Toxicology Data Bank (GENE-TOX), 2018)
